Here are results for 23 compounds from patent US20260049088A1, “TRICYCLIC HETEROCYCLIC DERIVATIVES, COMPOSITIONS AND USES THEREOF” (Danatlas Pharmaceuticals Co., Ltd., priority 2023, published 2026).

The structures appear in SMILES notation. pIC50: −log10 of the molar value.

The assay deals with T1, hPARG (Homo sapiens, UniProt Q86W56).
T1 construct: made in house; host or cells: E. coli
As to the kind of experiment: PARG enzymatic activity assay (HTRF). It counts as biochemical. The conditions noted are these: C-terminal His6-tag hPARG 65 pM, biotinylated-NAD ribosylated PARP1 substrate 8 nM. As to the method: HTRF assay was used to measure the ability of compounds to inhibit the activity of […] in vitro. C-terminal His6—tag PARG expressed in E. coli was purified and stored at −80° C. in aliquots. Assay measurements were performed with 1×buffer comprising 50 mM Tris pH 7.4, 0.1 mg/mL BSA, 3 mM EDTA, 0.4 mM EGTA, 1 mM DTT, 50 mM KCl and 0.01% Tween 20. Compounds dissolved in DMSO were plated into a 384-well assay plate (PerkinElmer, Catalog #: 6008280) in duplicate using a dispenser (Labcyte, Echo 665), and tested on a 10-point 4-fold serial dilution. Add 5 μL Enzyme mix [hPARG (C-terminal His6—tag, 4.2 μM), 65 pM final] to the test wells. The plates were covered and left to incubate for 60 minutes at RT before the addition of 5 μL substrate mix [biotinylated-NAD ribosylated PARP1 (6.1 μM), 8 nM final] to initiate reaction. After incubating 10 minutes at RT, add 2.5 μL Streptavidin-Eu cryptate (Cisbio, Catalog #: 610SAKLA) and 2.5 μL Mab anti 6HIS-XL665 (Cisbio, Catalog #: 61HISXLA) to the plate, and incubate for 60 minutes at RT. Read on a multimode plate reader (PerkinElmer, Envision 2015) in time-resolved fluorescence (TRF) mode, with excitation at 337 nm and emission at both 620 nm and 665 nm. Average HTRF signal of high control (Wells with 1% DMSO) was calculated and as Vehicle Control (VC). Average HTRF signal of low control (no Enzyme) was calculated and as Positive control (PC).
IC50 values were determined by fitting the data to the standard 4 parameters with Hill Slope using GraphPad Prism software.
A general note: TR-FRET usually uses a lanthanide donor and a delayed reading to cut background.

T1 sequence (Q86W56 whole entry): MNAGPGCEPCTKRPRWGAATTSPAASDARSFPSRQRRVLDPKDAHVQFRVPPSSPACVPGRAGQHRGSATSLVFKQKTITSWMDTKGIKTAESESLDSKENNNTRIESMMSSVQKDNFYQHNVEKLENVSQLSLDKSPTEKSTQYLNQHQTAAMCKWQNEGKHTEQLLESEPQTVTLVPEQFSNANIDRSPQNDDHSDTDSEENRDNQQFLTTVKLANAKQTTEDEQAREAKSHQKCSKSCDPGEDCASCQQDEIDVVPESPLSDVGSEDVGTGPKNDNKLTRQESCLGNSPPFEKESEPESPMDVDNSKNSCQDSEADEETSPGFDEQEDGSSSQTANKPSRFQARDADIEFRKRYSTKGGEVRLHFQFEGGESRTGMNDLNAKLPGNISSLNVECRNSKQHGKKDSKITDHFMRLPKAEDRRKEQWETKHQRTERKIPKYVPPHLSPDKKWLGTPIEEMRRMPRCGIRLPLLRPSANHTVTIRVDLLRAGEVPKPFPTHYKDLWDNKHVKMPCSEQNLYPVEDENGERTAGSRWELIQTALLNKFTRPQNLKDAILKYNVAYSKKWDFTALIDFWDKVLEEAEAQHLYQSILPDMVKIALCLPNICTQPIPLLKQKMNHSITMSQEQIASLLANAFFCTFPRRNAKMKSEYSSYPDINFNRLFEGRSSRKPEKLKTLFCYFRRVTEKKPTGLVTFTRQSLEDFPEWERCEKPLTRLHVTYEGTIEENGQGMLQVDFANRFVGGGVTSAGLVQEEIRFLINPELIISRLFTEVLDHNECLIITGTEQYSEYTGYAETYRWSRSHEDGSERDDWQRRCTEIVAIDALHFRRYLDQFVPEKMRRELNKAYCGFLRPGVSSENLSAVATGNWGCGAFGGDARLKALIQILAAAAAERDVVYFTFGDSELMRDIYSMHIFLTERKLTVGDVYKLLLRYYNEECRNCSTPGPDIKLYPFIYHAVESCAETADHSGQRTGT

The pIC50 is −log10 of the IC50, conventionally taken in molar units. The low end stands for a high IC50, the high end for a low IC50. For `CCN1CCC2CN(c3ncnc4c3c3ccc(S(=O)(=O)NC5(C#N)CC5)cc3n4-c3nnc(C(F)F)s3)CCC21` (centres unmarked) [Example 38, N-(1-Cyanocyclopropyl)-9-(5-(difluoromethyl)-1,3,4-thiadiazol-2-yl)-4-(1-ethyloctahydro-5H-pyrrolo[3,2-c]pyridin-5-yl)-9H-pyrimido[4,5-b]indole-7-sulfonamide], the pIC50 was ≥ 7.00. As to `CN(C[C@@H]1CCOC1)c1ncnc2c1c1ccc(S(=O)(=O)NC3(C#N)CC3)cc1n2-c1nnc(C(F)F)s1` [Example 56, (S)-N-(1-Cyanocyclopropyl)-9-(5-(difluoromethyl)-1,3,4-thiadiazol-2-yl)-4-(methyl((tetrahydrofuran-3-yl)methyl)amino)-9H-pyrimido[4,5-b]indole-7-sulfonamide], the pIC50 was ≥ 7.00. Turning to `CN(CC(=O)N1CCOCC1)c1ncnc2c1c1ccc(S(=O)(=O)NC3(C#N)CC3)cc1n2-c1nnc(C(F)F)s1` [Example 20, N-(1-Cyanocyclopropyl)-9-(5-(difluoromethyl)-1,3,4-thiadiazol-2-yl)-4-(methyl(2-morpholino-2-oxoethyl)amino)-9H-pyrimido[4,5-b]indole-7-sulfonamide], the negative logarithm of the IC50 (pIC50) was ≥ 7.00.

As to `Cc1nnc2n1CCN(c1ncnc3c1c1ccc(S(=O)(=O)NC4(C#N)CC4)cc1n3-c1nnc(C(F)F)s1)C2` [Example 47, N-(1-Cyanocyclopropyl)-9-(5-(difluoromethyl)-1,3,4-thiadiazol-2-yl)-4-(3-methyl-5,6-dihydro-[1,2,4]triazolo[4,3-a]pyrazin-7(8H)-yl)-9H-pyrimido[4,5-b]indole-7-sulfonamide], the pIC50 is ≥ 7.00. In the case of `CN(CCc1ccccn1)c1ncnc2c1c1ccc(S(=O)(=O)NC3(C#N)CC3)cc1n2-c1nnc(C(F)F)s1` [Example 76, N-(1-Cyanocyclopropyl)-9-(5-(difluoromethyl)-1,3,4-thiadiazol-2-yl)-4-(methyl(2-(pyridin-2-yl)ethyl)amino)-9H-pyrimido[4,5-b]indole-7-sulfonamide], the negative-log IC50 (pIC50) was ≥ 7.00. In turn, `CN(CCN1CCCC1=O)c1ncnc2c1c1ccc(S(=O)(=O)NC3(C#N)CC3)cc1n2-c1nnc(C(F)F)s1` [Example 61, N-(1-Cyanocyclopropyl)-9-(5-(difluoromethyl)-1,3,4-thiadiazol-2-yl)-4-(methyl(2-(2-oxopyrrolidin-1-yl)ethyl)amino)-9H-pyrimido[4,5-b]indole-7-sulfonamide] gave a pIC50 of 6.00 to 7.00.

With `CN(Cc1ccccn1)c1ncnc2c1c1ccc(S(=O)(=O)NC3(C#N)CC3)cc1n2-c1nnc(C(F)F)s1` [Example 22, N-(1-Cyanocyclopropyl)-9-(5-(difluoromethyl)-1,3,4-thiadiazol-2-yl)-4-(methyl(pyridin-2-ylmethyl)amino)-9H-pyrimido[4,5-b]indole-7-sulfonamide], the negative-log IC50 (pIC50) is 6.00 to 7.00. Under `CN(CC1COCCN1C)c1ncnc2c1c1ccc(S(=O)(=O)NC3(C#N)CC3)cc1n2-c1nnc(C(F)F)s1` (centres unmarked) [Example 64, N-(1-Cyanocyclopropyl)-9-(5-(difluoromethyl)-1,3,4-thiadiazol-2-yl)-4-(methyl((4-methylmorpholin-3-yl)methyl)amino)-9H-pyrimido[4,5-b]indole-7-sulfonamide] stands ≥ 7.00; under `CN(C)CCN(C)c1ncnc2c1c1ccc(S(=O)(=O)NC3(C#N)CC3)cc1n2-c1nnc(C(F)F)s1` [Example 62, N-(1-Cyanocyclopropyl)-9-(5-(difluoromethyl)-1,3,4-thiadiazol-2-yl)-4-((2-(dimethylamino)ethyl)(methyl)amino)-9H-pyrimido[4,5-b]indole-7-sulfonamide], ≥ 7.00. Regarding `CN(CCN1CCCS1(=O)=O)c1ncnc2c1c1ccc(S(=O)(=O)NC3(C#N)CC3)cc1n2-c1nnc(C(F)F)s1` [Example 72, N-(1-Cyanocyclopropyl)-9-(5-(difluoromethyl)-1,3,4-thiadiazol-2-yl)-4-((2-(1,1-dioxidoisothiazolidin-2-yl)ethyl)(methyl)amino)-9H-pyrimido [4,5-b]indole-7-sulfonamide], the negative-log IC50 (pIC50) was 6.00 to 7.00. On to `CCN(CC)[C@@H]1CCN(c2ncnc3c2c2ccc(S(=O)(=O)NC4(C#N)CC4)cc2n3-c2nnc(C(F)F)s2)C[C@@H]1F` [Example 33, N-(1-Cyanocyclopropyl)-4-((3S,4R)-4-(diethylamino)-3-fluoropiperidin-1-yl)-9-(5-(difluoromethyl)-1,3,4-thiadiazol-2-yl)-9H-pyrimido[4,5-b]indole-7-sulfonamide], for which the pIC50 is ≥ 7.00. Turning to `CN(CC(=O)O)c1ncnc2c1c1ccc(S(=O)(=O)NC3(C#N)CC3)cc1n2-c1nnc(C(F)F)s1` [Example 19, N-(7-(N-(1-Cyanocyclopropyl)sulfamoyl)-9-(5-(difluoromethyl)-1,3,4-thiadiazol-2-yl)-9H-pyrimido[4,5-b]indol-4-yl)-N-methylglycine], the pIC50 was ≥ 7.00. In the case of `N#CC1(NS(=O)(=O)c2ccc3c4c(SCCN5CCOCC5)ncnc4n(-c4nnc(C(F)F)s4)c3c2)CC1` [Example 83, N-(1-Cyanocyclopropyl)-9-(5-(difluoromethyl)-1,3,4-thiadiazol-2-yl)-4-((2-morpholinoethyl)thio)-9H-pyrimido[4,5-b]indole-7-sulfonamide] it was 6.00 to 7.00. In the case of `CN(Cc1ccncc1)c1ncnc2c1c1ccc(S(=O)(=O)NC3(C#N)CC3)cc1n2-c1nnc(C(F)F)s1` [Example 21, N-(1-Cyanocyclopropyl)-9-(5-(difluoromethyl)-1,3,4-thiadiazol-2-yl)-4-(methyl(pyridin-4-ylmethyl)amino)-9H-pyrimido[4,5-b]indole-7-sulfonamide], the pIC50 was ≥ 7.00. On to `CN1C[C@H]2C[C@@H]1CN2c1ncnc2c1c1ccc(S(=O)(=O)NC3(C#N)CC3)cc1n2-c1nnc(C(F)F)s1` [Example 30, N-(1-Cyanocyclopropyl)-9-(5-(difluoromethyl)-1,3,4-thiadiazol-2-yl)-4-((1R,4R)-5-methyl-2,5-diazabicyclo[2.2.1]heptan-2-yl)-9H-pyrimido[4,5-b]indole-7-sulfonamide], for which the negative-log IC50 (pIC50) was ≥ 7.00.

For the compound `CN1CC2CN(c3ncnc4c3c3ccc(S(=O)(=O)NC5(C#N)CC5)cc3n4-c3nnc(C(F)F)s3)CC2C1` (centres unmarked) [Example 29, N-(1-Cyanocyclopropyl)-9-(5-(difluoromethyl)-1,3,4-thiadiazol-2-yl)-4-(5-methylhexahydropyrrolo[3,4-c]pyrrol-2(1H)-yl)-9H-pyrimido[4,5-b]indole-7-sulfonamide], the negative logarithm of the IC50 (pIC50) is ≥ 7.00.

Consider `CN(CC1CCOC1)c1ncnc2c1c1ccc(S(=O)(=O)NC3(C#N)CC3)cc1n2-c1nnc(C(F)F)s1` (centres unmarked) [Example 23, N-(1-Cyanocyclopropyl)-9-(5-(difluoromethyl)-1,3,4-thiadiazol-2-yl)-4-(methyl((tetrahydrofuran-3-yl)methyl)amino)-9H-pyrimido[4,5-b]indole-7-sulfonamide], for which the pIC50 was ≥ 7.00.

On to `C[C@@H]1CCCN(c2ncnc3c2c2ccc(S(=O)(=O)NC4(C#N)CC4)cc2n3-c2nnc(C(F)F)s2)C1` [Example 81, (R)-N-(1-Cyanocyclopropyl)-9-(5-(difluoromethyl)-1,3,4-thiadiazol-2-yl)-4-(3-methylpiperidin-1-yl)-9H-pyrimido[4,5-b]indole-7-sulfonamide], for which the pIC50 is ≥ 7.00. As to `CCSc1ncnc2c1c1ccc(S(=O)(=O)NC3(C#N)CC3)cc1n2-c1nnc(C(F)F)s1` [Example 26, N-(1-Cyanocyclopropyl)-9-(5-(difluoromethyl)-1,3,4-thiadiazol-2-yl)-4-(ethylthio)-9H-pyrimido[4,5-b]indole-7-sulfonamide], the pIC50 is < 6.00. On to `CN(CCN1CCOCC1)c1ncnc2c1c1ccc(S(=O)(=O)NC3(C#N)CC3)cc1n2-c1nnc(C(F)F)s1` [Example 13, N-(1-cyanocyclopropyl)-9-(5-(difluoromethyl)-1,3,4-thiadiazol-2-yl)-4-(methyl(2-morpholinoethyl)amino)-9H-pyrimido[4,5-b]indole-7-sulfonamide], for which the pIC50 was ≥ 7.00. With `CC(C)C(=O)N1CCN(CCOc2ncnc3c2c2ccc(S(=O)(=O)NC4(C#N)CC4)cc2n3-c2nnc(C(F)F)s2)CC1` [Example 4, N-(1-Cyanocyclopropyl)-9-(5-(difluoromethyl)-1,3,4-thiadiazol-2-yl)-4-(2-(4-isobutyrylpiperazin-1-yl)ethoxy)-9H-pyrimido[4,5-b]indole-7-sulfonamide], the negative-log IC50 (pIC50) is ≥ 7.00. Regarding `N#CC1(NS(=O)(=O)c2ccc3c4c(N5CCO[C@@H](CO)C5)ncnc4n(-c4nnc(C(F)F)s4)c3c2)CC1` [Example 42, (R)-N-(1-Cyanocyclopropyl)-9-(5-(difluoromethyl)-1,3,4-thiadiazol-2-yl)-4-(2-(hydroxymethyl)morpholino)-9H-pyrimido[4,5-b]indole-7-sulfonamide], the pIC50 is ≥ 7.00.

In the case of `N#CC1(NS(=O)(=O)c2ccc3c4c(OCCn5cccn5)ncnc4n(-c4nnc(C(F)F)s4)c3c2)CC1` [Example 12, 4-(2-(1H-Pyrazol-1-yl)ethoxy)-N-(1-cyanocyclopropyl)-9-(5-(difluoromethyl)-1,3,4-thiadiazol-2-yl)-9H-pyrimido[4,5-b]indole-7-sulfonamide], the pIC50 is ≥ 7.00.
